Series [1] concerns the target T1, Chk1 (Homo sapiens, UniProt O14757).
T1 construct: purchased BPS 40039
T1 sequence (O14757 1-476): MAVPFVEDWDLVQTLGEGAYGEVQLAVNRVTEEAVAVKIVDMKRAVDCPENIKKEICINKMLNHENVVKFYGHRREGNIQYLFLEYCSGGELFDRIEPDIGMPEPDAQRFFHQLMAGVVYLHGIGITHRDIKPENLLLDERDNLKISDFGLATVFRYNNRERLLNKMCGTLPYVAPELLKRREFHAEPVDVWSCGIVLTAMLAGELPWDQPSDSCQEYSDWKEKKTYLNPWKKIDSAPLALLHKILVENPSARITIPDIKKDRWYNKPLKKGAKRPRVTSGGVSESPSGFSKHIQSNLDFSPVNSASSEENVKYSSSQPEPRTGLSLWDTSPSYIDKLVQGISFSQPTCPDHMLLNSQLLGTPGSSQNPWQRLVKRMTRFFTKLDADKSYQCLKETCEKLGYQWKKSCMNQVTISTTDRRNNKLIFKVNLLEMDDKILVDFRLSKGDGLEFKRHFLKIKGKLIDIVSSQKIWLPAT
As to the kind of experiment: biochemical. To be noted: ADP-Glo; read-out: Chk1 in vitro enzyme activity (grade).

The target of series [2] is T2, Chk2 (Homo sapiens, UniProt O96017).
T2 construct: purchased Carna 02-162
In words: biochemical. The conditions noted are these: ADP-Glo; read-out: Chk2 in vitro enzyme activity (grade).

Series [3] has as its system HT-29. In words: Cancer cell growth inhibition assay (CellTiter-Glo), HT-29. The conditions noted are these: Homo sapiens, HT-29; 72 hours, cellular ATP content; read-out: HT-29 anti cell proliferation activity (grade). In kind it is cell-based, Human. As for the experimental part:
(§1) Human cancer cell lines were purchased from American Type Culture Collection (Manassas, Va.). The trypsinized cells were diluted to required volume at densities of 44,000 cells/ml. 90 ul cell slurry was dispensed per well in 96-well flat-bottomed plates with the recommended culture medium. The cells were incubated for 24 hours at 37° C. in 5% CO2 under humidified condition. The cells were then incubated with compounds at various concentrations for 72 hours in culture medium supplemented with 0.5% (v/v) FBS. Growth inhibition was assessed by assay of cellular ATP content using CellTiter-Glo reagent to each well. Luminesce was read on Envision. The inhibition rate (%)=(Max signal compound signal)/(Max signal Min signal)×100.
For orientation: Cellular ATP, detected with luciferase, serves as a proxy for viable cell number.

In series [4] the test system is MDA-MB-231. In words: Cancer cell growth inhibition assay (CellTiter-Glo), MDA-MB-231. In kind it is cell-based, Human. To be noted: Homo sapiens, MDA-MB-231; 72 hours, cellular ATP content; read-out: MDA-MB-231 anti cell proliferation activity (grade). As for the experimental part: as §1
Series [5] can be described thus: Human liver S9 metabolic stability. In kind it is in vitro ADME. The conditions noted are these: for Percentage Remaining %: 1 μM, 37° C. As for the experimental part:
Compounds (1 μM) were incubated with human liver S9 (from BD Gentest) at final liver microsomal protein concentration of 0.5 mg/mL for 0, 5, 15, 30, 45 min at 37° C. The remaining compounds in the reaction were measured by LC-MS/MS. The half-life (T½) 0.693/K (K is the rate constant from a plot of ln [concentration] vs. incubation time).

The nature of series [6]: Pharmacokinetics study in rats, intravenous. In kind it is in vivo, SD rats. To be noted: rat, IV; for AUC(0-inf) / AUC(0-t) / clearance / MRT / half-life / Vd: male, SD, plasma, 10 mg/kg; for AUC(0-inf): read-out: AUC0-inf; for AUC(0-t): read-out: AUC0-t; for clearance: read-out: CL (converted); for MRT: read-out: MRT; for half-life: read-out: t½ (converted); for Vd: iv; for half-life and exposure compared with LY2606368: 10 mg/kg (LY2606368 5 mg/kg). The procedure:
Compounds were formulated in 30% SEB-β-CD (Zhiyuan Bio-technology) with 1 molar equivalents of HCl (pH adjusted to 3-5). Male SD rats (280-350 g) were purchased from Medical Laboratory Animal Center of Guangdong. Three rats were used for each PK study. […] At various time points after compound administration, approximately 0.2˜0.3 mL of blood was collected by cutting the end of tail into tubes containing K2-EDTA. The plasma was separated via centrifugation and stored at −80° C. A PE Sciex API-3000 LC-MS/MS system (Applied Biosystems, Inc.) was used to analyze compound concentrations in plasma.
PK studies of ChK1 inhibitors were conducted in rats after intravenous administration at 10 mg/kg. […]. […]

The structures appear in SMILES notation. Like-named read-outs stand apart in the source and are kept apart here.

T2 sequence (O96017 whole entry): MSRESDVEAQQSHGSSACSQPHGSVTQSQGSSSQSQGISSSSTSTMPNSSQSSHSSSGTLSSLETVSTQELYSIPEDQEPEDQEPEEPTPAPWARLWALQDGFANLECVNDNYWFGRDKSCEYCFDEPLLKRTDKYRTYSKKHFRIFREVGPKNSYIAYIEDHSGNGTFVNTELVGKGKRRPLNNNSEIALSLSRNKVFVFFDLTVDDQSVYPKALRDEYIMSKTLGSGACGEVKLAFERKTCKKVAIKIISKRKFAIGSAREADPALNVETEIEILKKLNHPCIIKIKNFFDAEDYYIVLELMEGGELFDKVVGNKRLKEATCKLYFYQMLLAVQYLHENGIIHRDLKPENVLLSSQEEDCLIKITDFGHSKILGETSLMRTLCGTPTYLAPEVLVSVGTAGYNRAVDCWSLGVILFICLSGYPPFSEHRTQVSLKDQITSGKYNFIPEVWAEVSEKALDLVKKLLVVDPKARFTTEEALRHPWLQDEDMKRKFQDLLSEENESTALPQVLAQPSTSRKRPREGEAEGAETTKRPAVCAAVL

With `CCOC(=O)NCCCOc1cc(F)cc(OC)c1-c1cc(Nc2cnc(C#N)cn2)n[nH]1` [Compound 38, Ethyl 3-(2-(3-(5-cyanopyrazin-2-ylamino)-1H-pyrazol-5-yl)-5-fluoro-3-methoxyphenoxy)propylcarbamate], in series [1], the IC50 was 0.01 to 0.05 µM.
In the case of `CNCC1(COc2c(F)ccc(OC)c2-c2cc(Nc3cnc(C#N)cn3)n[nH]2)CC1` [Compound 18, 5-(5-(3-fluoro-6-methoxy-2-((1-((methylamino)methyl)cyclopropyl)methoxy)phenyl)-1H-pyrazol-3-ylamino)pyrazine-2-carbonitrile], the melting point is 213 to 215 °C. Also, the IC50 in series [1] was in the range of 0.001 to 0.01 µM.
Compound `COc1cc(OC)c(-c2cc(Nc3cnc(C#N)cn3)n[nH]2)c(OCCCN)c1` [Compound 7, 5-(5-(2-(3-Aminopropoxy)-4,6-dimethoxyphenyl)-1H-pyrazol-3-ylamino)pyrazine-2-carbonitrile] displayed a melting point of 145 to 151 °C. In series [2], the IC50 lay within 0.01 to 0.05 µM. Besides, the IC50 in series [1] was 0.001 to 0.01 µM. The IC50 in series [3] was in the range of 0.01 to 0.05 µM. In addition, in series [4], the IC50 lay within 0.01 to 0.05 µM.
`COc1c(F)ccc(OCCCN)c1-c1cc(Nc2cnc(C#N)cn2)n[nH]1` [Compound 2, 5-((5-(6-(3-aminopropoxy)-3-fluoro-2-methoxyphenyl)-1H-pyrazol-3-yl)amino)pyrazine-2-carbonitrile] had a melting point of 80 to 84 °C. The IC50 in series [1] was at most 0.001 µM. In series [3], the IC50 was in the range of 0.1 to 0.5 µM. The IC50 in series [4] was 0.1 to 0.5 µM.
`COc1cc(C)cc(OCC2(CN)CC2)c1-c1cc(Nc2cnc(C#N)cn2)n[nH]1` [Compound 16, 5-(5-(2-((1-(Aminomethyl)cyclopropyl)methoxy)-6-methoxy-4-methylphenyl)-1H-pyrazol-3-ylamino)pyrazine-2-carbonitrile] gave a melting point of 165 to 170 °C. Moreover, in series [2], the IC50 is 0.01 to 0.05 µM. For the same compound, the IC50 in series [1] was at most 0.001 µM. Further, the IC50 in series [3] was at most 0.01 µM. The IC50 in series [4] lay in the range of 0.01 to 0.05 µM.
For `COc1ccc(F)c(OCCCN)c1-c1cc(Nc2cnc(C#N)cn2)n[nH]1` [Compound 1, 5-(5-(2-(3-Aminopropoxy)-3-fluoro-6-methoxyphenyl)-1H-pyrazol-3-ylamino)pyrazine-2-carbonitrile], the melting point lay within 221 to 224 °C. In addition, the IC50 in series [1] is 0.001 to 0.01 µM. In addition, the IC50 in series [3] was 0.1 to 0.5 µM. Further, the IC50 in series [4] is 0.1 to 0.5 µM.
With `COc1cc(C)cc(OCCCN)c1-c1cc(Nc2cnc(C#N)cn2)n[nH]1` [Compound 6, 5-(5-(2-(3-aminopropoxy)-6-methoxy-4-methylphenyl)-1H-pyrazol-3-ylamino)pyrazine-2-carbonitrile], the melting point was in the range of 188 to 191 °C. Moreover, the IC50 in series [2] lay within 0.05 to 0.1 µM. In addition, the IC50 in series [1] was at most 0.001 µM. In addition, the IC50 in series [3] lay in the range of 0.01 to 0.05 µM. Besides, the IC50 in series [4] was 0.01 to 0.05 µM.
As for `COc1cc(OC)c(-c2cc(Nc3cnc(C#N)cn3)n[nH]2)c(OCC2(CN)CC2)c1` [Compound 17, 5-(5-(2-((1-(Aminomethyl)cyclopropyl)methoxy)-4,6-dimethoxyphenyl)-1H-pyrazol-3-ylamino)pyrazine-2-carbonitrile], the melting point lay in the range of 160 to 164 °C. Further, the IC50 in series [2] was in the range of 0.01 to 0.05 µM. In series [1], the IC50 fell in the range of 0.001 to 0.01 µM. The IC50 in series [3] was at most 0.01 µM. For the same compound, the IC50 in series [4] was 0.01 to 0.05 µM.
With `COc1cc(Br)cc(OCC2(CN)CC2)c1-c1cc(Nc2cnc(C#N)cn2)n[nH]1` [Compound 15, 5-(5-(2-((1-(Aminomethyl)cyclopropyl)methoxy)-4-bromo-6-methoxyphenyl)-1H-pyrazol-3-ylamino)pyrazine-2-carbonitrile], the IC50 in series [2] was 0.01 to 0.05 µM; in series [1], at most 0.001 µM; in series [3], 0.01 to 0.05 µM; in series [4] it was 0.01 to 0.05 µM. Also, the “Percentage Remaining %” value in series [5] (0 min) was 100.00%; in series [5] (5 min), 94.64%; in series [5] (15 min), 93.89%; in series [5] (30 min) it was 93.30%; in series [5] (45 min) it was 87.68%. The “metabolic stability compared with LY2606368” value in series [5] (human liver S9) is given as “more metabolic stable than LY2606368”. The half-life at 1 μM in series [5] (human liver S9, 1 μM) was found to be 7.99 h. In series [6], the AUC(0-inf) came out at 4980 ng·h/mL. In addition, the AUC(0-t) in series [6] came to 4890 ng·h/mL. The clearance in series [6] is 63.3 mL/min/kg. Moreover, in series [6], the MRT turned out to be 3.8 h. In addition, the half-life in series [6] is 7.4 h. Further, the Vd in series [6] (read-out: Vd) is 46.9 L/kg; in series [6] (read-out: Vss) it was 19.2 L/kg. The “half-life and exposure compared with LY2606368” value in series [6] is “longer half-life and higher exposure than LY2606368”.
The compound `COc1cc(Br)cc(OCCCN)c1-c1cc(Nc2cnc(C#N)cn2)n[nH]1` [Compound 5, 5-(5-(2-(3-Aminopropoxy)-4-bromo-6-methoxyphenyl)-1H-pyrazol-3-ylamino)pyrazine-2-carbonitrile] registered a melting point of 165 to 175 °C. The IC50 in series [2] was in the range of 0.05 to 0.1 µM. Moreover, in series [1], the IC50 is at most 0.001 µM. Besides, the IC50 in series [3] fell in the range of 0.01 to 0.05 µM. Also, in series [4], the IC50 is 0.05 to 0.1 µM. Further, in series [6], the AUC(0-inf) was determined as 2990 ng·h/mL, the AUC(0-t) came to 2960 ng·h/mL, the clearance is 60 mL/min/kg and the MRT is 2.8 h. In series [6], the half-life was 5.3 h; the “half-life and exposure compared with LY2606368” value was “longer half-life and higher exposure than LY2606368”. In addition, the Vd in series [6] (read-out: Vd) worked out at 29.5 L/kg. The Vd in series [6] (read-out: Vss) is 10.2 L/kg.
For the compound `CNCC1(COc2cc(F)cc(OC)c2-c2cc(Nc3cnc(C#N)cn3)n[nH]2)CC1` [Compound 20, 5-(5-(4-Fluoro-2-methoxy-6-((1-((methylamino)methyl)cyclopropyl)methoxy)phenyl)-1H-pyrazol-3-ylamino)pyrazine-2-carbonitrile], the melting point is 228 to 230 °C. Further, the IC50 in series [1] is at most 0.001 µM. Further, in series [3], the IC50 is at most 0.01 µM. Also, the IC50 in series [4] was 0.01 to 0.05 µM.
On the same counts, the results for `CNCC1(COc2ccc(F)c(OC)c2-c2cc(Nc3cnc(C#N)cn3)n[nH]2)CC1` [Compound 19, 5-((5-(3-fluoro-2-methoxy-6-((1-((methylamino)methyl)cyclopropyl)methoxy)phenyl)-1H-pyrazol-3-yl)amino)pyrazine-2-carbonitrile] are 215 to 219 °C, 0.001 to 0.01 µM, 0.05 to 0.1 µM and 0.1 to 0.5 µM.

Usually melting point stands for the temperature of the solid-liquid transition. Usually MRT stands for a mean duration of stay, worked out from the concentration-time curve.

(Values after patent US11116767B2, “3,5-disubstituted pyrazoles useful as checkpoint kinase 1 (Chk1) inhibitors, and their preparations and applications” (PHARMAENGINE, INC., priority 2016, dated 2021).)
